Experimental data published in US20040152903A1, “6-chloro-3-pyridylmethylpropylamine derivatives, preparation process thereof and bactericides” (priority 2004, published 2004).

What was measured:
Pyrenophora graminea = experiment: Antifungal activity test (PDA plate, hypha extension inhibition); assay type: cell-based; details: 12.5 ppm in PDA culture medium
Protocol: (§1) (Antifungal Activity Test against Various Pathogenic Fungi) For each of the compounds I-1 to 27 of the present invention and the comparative compounds (a) to (d), (m-1) and (m-3), 20 mg was weighed and dissolved in 2 ml of dimethylsulfoxide, and a double dilution row in 10 steps was prepared by further using dimethylsulfoxide. A 0.6 ml portion of these solutions was each added to 60 ml of a PDA culture medium (potato-dextrose-agar culture medium) at about 60° C., they were well mixed in a 100 ml Erlenmeyer flask, the solution was poured into a schale and was solidified, the plate culture media containing the compounds according to the present invention with final concentrations of 100, 50.0, 25.0, 12.5, 6.3, 3.2, 1.6, 0.8, 0.4 and 0.2 mg/l were prepared. On the other hand, the specimen bacteria cultured on the plate culture media beforehand was punched by a 4 mm diameter cork borer, and was inoculated on the plate culture media containing the aforementioned chemicals. After the inoculation, the bacteria were cultured at the optimum growth temperature of each bacterium for 1 to 7 days (for this optimum growth temperature, LIST OF CULTURES 1996 Microorganisms 10th edition published by Fermentation Research Institute (Foundation) can be referred to.), and the growth of the bacteria was measured by the diameter of a colony. […]

Venturia inaequalis = experiment: as above; assay type: cell-based; details: 3.2 ppm in PDA culture medium
Protocol: as §1

wheat powdery mildew = experiment: Test of control effect on wheat powdery mildew; assay type: in vivo; design: Control Value: scale not given here; details: wettable powder 125 mg/l, 100 liters/10 a, wheat seedlings (Nourin 64), examined 9th to 14th day after inoculation
Protocol: (Test of Control Effect on Wheat Powdery Mildew) Wettable powders were prepared from compounds of the present invention I-1 to I-27 and comparative compounds (a) to (d), (m-1) and (m-3). The obtained wettable powder was diluted and suspended with water to provide the predetermined concentration (125 mg/l), and was sprinkled onto seedlings of wheat (variety: “Nourin 64”) at the first to the second leaf period which were cultivated using square plastic pots (size: 6.4 cm×6.4 cm) in a rate of 100 liters/10 a (ares). After drying the sprinkled leaves with air, a suspension of wheat powdery mildew spores taken from infected leaves was inoculated by spraying onto the sprinkled leaves. They were supervised in a green house (temperature: 20 to 24° C., relative humidity: 20 to 70 RH). On the 9th to 14th day after the inoculation, the infection degree was examined according to the following scale and the control value of each compound was calculated by the following calculation equation 1. [table]

Pyricularia oryzae = assay type: cell-based; details: 12.5 ppm in PDA culture medium
Leptosphaeria nodorum = experiment: Antifungal activity test (PDA plate, hypha extension inhibition); assay type: cell-based; details: 0.8 ppm in PDA culture medium
Protocol: (Antifungal Activity Test against Various Pathogenic Fungi) For each of the compounds I-1 to 27 of the present invention and the comparative compounds (a) to (d), (m-1) and (m-3), 20 mg was weighed and dissolved in 2 ml of dimethylsulfoxide, and a double dilution row in 10 steps was prepared by further using dimethylsulfoxide. A 0.6 ml portion of these solutions was each added to 60 ml of a PDA culture medium (potato-dextrose-agar culture medium) at about 60° C., they were well mixed in a 100 ml Erlenmeyer flask, the solution was poured into a schale and was solidified, the plate culture media containing the compounds according to the present invention with final concentrations of 100, 50.0, 25.0, 12.5, 6.3, 3.2, 1.6, 0.8, 0.4 and 0.2 mg/l were prepared. On the other hand, the specimen bacteria cultured on the plate culture media beforehand was punched by a 4 mm diameter cork borer, and was inoculated on the plate culture media containing the aforementioned chemicals. After the inoculation, the bacteria were cultured at the optimum growth temperature of each bacterium for 1 to 7 days (for this optimum growth temperature, LIST OF CULTURES 1996 Microorganisms 10th edition published by Fermentation Research Institute (Foundation) can be referred to.), and the growth of the bacteria was measured by the diameter of a colony. […] R=100(dc−dt)/dc (Equation 3) [wherein each symbol is shown as follows: R=Hypha extension inhibition rate (%), dc=Diameter of colony on no-treated plate, dt=Diameter of colony on chemical-treated plate.] The results obtained above was evaluated in 5 steps in accordance with the following examination scale. <Growth Inhibition> 5: Hypha extension inhibition rate of 90% or more 4: Hypha extension inhibition rate of from 70% to less than 90% 3: […] 2: […] In addition, the abbreviations in Table 10 are as follows: L.n: Leptosphaeria nodorum

Compound | Growth Inhibition P.g (12.5) (Pyrenophora graminea) | Growth Inhibition V.i (3.2) (Venturia inaequalis) | Control Value (wheat powdery mildew) | Growth Inhibition P.o (12.5) (Pyricularia oryzae) | Growth Inhibition L.n (0.8) (Leptosphaeria nodorum)
CC(Cc1ccc2c(c1)OC(F)(F)O2)CN(C)Cc1ccc(Cl)nc1 (stereo not shown) [Compound I-24] | 5 (Hypha extension inhibition rate of 90% or more) | 4 (Hypha extension inhibition rate of from 70% to less than 90%) | 100 | 4 (Hypha extension inhibition rate of from 70% to less than 90%) | 5 (Hypha extension inhibition rate of 90% or more)
CC(Cc1ccc(C(F)(F)F)c(F)c1F)CN(C)Cc1ccc(Cl)nc1 (stereo not shown) [Compound I-10] | 4 (Hypha extension inhibition rate of from 70% to less than 90%) | 4 (Hypha extension inhibition rate of from 70% to less than 90%) | 100 | 4 (Hypha extension inhibition rate of from 70% to less than 90%) | 4 (Hypha extension inhibition rate of from 70% to less than 90%)
